In patent US20200375987A1, “METALLO-BETA-LACTAMASE INHIBITORS AND METHODS OF USE THEREOF” (priority 2018, published 2020):
pIC50: −log10 of the molar value.

Experiments:
NDM-1 = NDM-1 (Klebsiella pneumoniae, UniProt C7C422); test: Enzyme activity: determination of IC50, fluorescence assay with CCF2-FA substrate (NDM-1); format: biochemical; settings: 1 pM enzyme, 1.25 μM CCF2-FA, 2 hours at 25° C.; read-out: NDM1 IC50
Procedure: (§1) The Class B enzyme activities were measured in the presence of the test inhibitor in a fluorescence assay against a commercially available substrate consisting of a cephalosporin core linking 7-hydroxycoumarin to fluorescein (CCF2-FA). The enzyme (NDM-1, IMP-1 or VIM-1) and the substrate were diluted in 100 mM KH2PO4 buffer (pH 7) containing 0.005% Tween-20 and 10 μM ZnSO4. In the assay, the final concentration of enzyme was 1 pM, 2 pM and 30 pM for NDM-1, IMP-1 and VIM-1, respectively, and the final concentration of CCF2-FA was 1.25 μM. The test inhibitor was dissolved in dimethylsulfoxide and diluted 1:50 in the assay, resulting in a final concentration range of 20 μM to 0.00063 μM. In a 384-well microplate, the test inhibitor was incubated with the metallo-β-lactamase enzyme and the substrate for 2 hours at 25° C. Fluorescence at 460 nm following excitation at 405 nm was measured. The IC50 value was determined from semi-logarithmic plots of enzyme inhibition versus inhibitor concentration, with a curve generated using a 4-parameter fit.

IMP-1 = IMP-1 (Serratia marcescens, UniProt P52699); test: Enzyme activity: determination of IC50, fluorescence assay with CCF2-FA substrate (IMP-1); format: biochemical; settings: 2 pM enzyme, 1.25 μM CCF2-FA, 2 hours at 25° C.; read-out: IMP1 IC50
Procedure: as §1

VIM-1 = VIM-1 (Pseudomonas aeruginosa, UniProt A0A0F7KYQ8); test: Enzyme activity: determination of IC50, fluorescence assay with CCF2-FA substrate (VIM-1); format: biochemical; settings: 30 pM enzyme, 1.25 μM CCF2-FA, 2 hours at 25° C.; read-out: VIM1 IC50
Procedure: as §1

VIM-2 = VIM-2 (Escherichia coli, UniProt Q5U7L7); test: Enzyme activity: determination of IC50 (VIM-2); format: biochemical; settings: read-out: VIM2 IC50
[1] = test system: Escherichia coli expressing NDM-1 (CLB30016); test: Antibiotic potentiation activity: synergistic concentration (MITC95) with imipenem; format: cell-based; settings: imipenem 1 μg/mL; lowest concentration inhibiting 95% of growth; 35° C., 22-24 hours
Procedure: (§2) The bacterial strains tested included the clinical strains Escherichia coli expressing NDM-1 (CLB30005, CLB30016), Serratia marcescens expressing IMP-1 (CL5741), and Klebsiella pneumoniae expressing VIM-1 (IHMA599644). Inhibitor activity was measured in the presence and absence of imipenem in a 384-well microplate.
(§3) The clinical strains CLB30016, CL5741 and IHMA599644 were grown on trypticase soy agar containing 5% sheep's blood. The bacteria on agar plates were incubated at 35° C. with humidity overnight. The following day, individual colonies from each clinical strain were picked and resuspended in 5 mL saline to attain an OD600 of 0.14, 0.11, 0.15 and 0.13, for CLB30016, CL5741 and IHMA599644, respectively. These were further diluted 1:100 into 1.1× CAMHB and used to inoculate the test wells as described below.
(§4) Imipenem in 10 mM 3-(N-morpholino)propanesulfonic acid (MOPS, pH 7) was stored in single use aliquots at −80° C. […] On the day of the assay, 4 μl of antibiotic was added to 45 μl of bacteria followed by 1 μl of test compound and mixed by pipetting and with an orbital shaker. The concentration of antibiotic used in the assay was 1 μg/mL. Microplates were covered and incubated at 35° C. for 22 hours to 24 hours. At the end of the incubation, absorbance was determined using a spectrophotometer. The synergistic concentration of MBLI was determined by identifying the lowest concentration of test compound in the presence of a given concentration of antibiotic that was required to inhibit 95% of the growth of the bacteria. The results for Examples 1-209 are reported in Table 1, expressed as the concentration of compound that potentiated the action of antibiotic (imipenem) affecting 95% inhibition of bacterial growth (MITC95).

[2] = test system: Klebsiella pneumoniae expressing VIM-1 (IHMA599644); test: as above; format: cell-based; settings: imipenem 1 μg/mL; lowest concentration inhibiting 95% of growth; 35° C., 22-24 hours
Procedure: as §2, §3, §4

[3] = test system: Serratia marcescens expressing IMP-1 (CL5741); test: as above; format: cell-based; settings: imipenem 1 μg/mL; lowest concentration inhibiting 95% of growth; 35° C., 22-24 hours
Procedure: as §2, §3, §4

[4] = test system: P. aeruginosa MB9798 (efflux WT, IMP-1); test: Efflux: concentration of MBL inhibitor restoring susceptibility to imipenem (MITC95), efflux+ strain; format: cell-based, Pseudomonas aeruginosa; settings: imipenem at 2 μg/mL in the presence of a class A, C, D serine β-lactamase inhibitor closely related to relebactam
Source text: (§5) In order to assess the contribution of efflux to lack of whole cell inhibition of metallo-beta-lactamase inhibitors of formula I, tool strains were constructed. The strain background is Pseudomonas aeruginosa PAO1. A wild-type (MB5919) and an isogenic strain in which multiple efflux pumps have been disrupted genetically were used. The MBL IMP-1, obtained from a clinical isolate was introduced into the strain pair by the following process:
(§6) Plasmid DNA (encoding IMP-1) was extracted from CL 5673 (IMP-1, P. aeruginosa clinical strain) by standard techniques. The plasmid DNA was transformed into parental MB5919 (oprD+, efflux+, inducible AmpC) and MB5890 (oprD+, efflux−, inducible AmpC) isogenic strains by electroporation. These transformed strains were plated onto cation-adjusted Muller-Hinton agar plates containing ceftazidime at 32 μg/mL (MB5919) and 16 μg/mL (MB5890) to select for those cells in which the IMP-1-expressing plasmid was introduced successfully, resulting in resistance to ceftazidime. Agarose-gel electrophoresis of PCR product for IMP-1 from the successful transformants was used to compare to control and to the original strain from which the plasmid was obtained, confirming transfer of the IMP-1 gene (data not shown).
(§7) The strain set was then used as a pair to determine the effect of metallo-β-lactamase inhibitors of Formula Ion the MIC of imipenem and/or ceftazidime. A fixed concentration of antibiotic is included in standard microbroth MIC tests, usually at the CLSI breakpoint concentration. A fixed amount of a class A/C beta-lactamase inhibitor is also included to inhibit the resident Pseudomonas AmpC enzyme. A serial titration of the metallo-β-lactamase inhibitor was included and the concentration of metallo-β-lactamase inhibitor which restores susceptibility of the strain to the included antibiotic was recorded. That concentration of metallo-β-lactamase inhibitor was then compared between the two strains to determine the fold difference between the efflux+(MB9798) and efflux−(MB9799) strains, which indicates n the extent to which the MBLi is subject to efflux.

[5] = test system: P. aeruginosa MB9799 (efflux mutant, IMP-1); test: Efflux: concentration of MBL inhibitor restoring susceptibility to imipenem (MITC95), efflux− strain; format: cell-based, Pseudomonas aeruginosa; settings: imipenem at 2 μg/mL in the presence of a class A, C, D serine β-lactamase inhibitor closely related to relebactam
Source text: as §5, §6, §7

Chain of NDM-1 (C7C422 29-270, looked up, species assumed): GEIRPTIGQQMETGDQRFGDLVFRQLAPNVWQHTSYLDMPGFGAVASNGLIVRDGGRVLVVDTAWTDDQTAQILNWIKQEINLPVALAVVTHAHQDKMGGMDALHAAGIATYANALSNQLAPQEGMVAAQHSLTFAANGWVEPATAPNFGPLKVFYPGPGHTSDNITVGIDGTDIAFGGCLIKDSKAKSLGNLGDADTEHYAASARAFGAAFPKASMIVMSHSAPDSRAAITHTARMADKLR
Chain of IMP-1 (P52699 19-246, looked up, species assumed): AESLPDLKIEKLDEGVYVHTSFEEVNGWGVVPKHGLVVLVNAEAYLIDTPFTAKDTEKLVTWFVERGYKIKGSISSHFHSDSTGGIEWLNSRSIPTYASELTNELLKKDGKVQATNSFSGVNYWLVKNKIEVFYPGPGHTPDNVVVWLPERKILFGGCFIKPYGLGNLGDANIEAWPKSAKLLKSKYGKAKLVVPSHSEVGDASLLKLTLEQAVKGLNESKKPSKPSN

SMILES | pIC50 (NDM-1) | pIC50 (IMP-1) | pIC50 (VIM-1) | pIC50 (VIM-2) | CLB30016 E.coli MITC95 NDM [1] | IHMA599644 K.pneumoniae MITC95 uM VIM [2] | CL5741 S.marcescens MITC95 uM IMP [3] | MB9798 MITC95 P. aeruginosa Efflux WT [4] | MB9799 MITC95 P. aeruginosa Efflux Mutant [5]
NS(=O)(=O)c1c(S(=O)(=O)N[C@@H]2CCNC2)ccc(N2CCCn3ncnc32)c1-c1nnn[nH]1 [Example 8, (R)-4-(6,7-dihydro-[1,2,4]triazolo[1,5-a]pyrimidin-4(5H)-yl)-N1-(pyrrolidin-3-yl)-3-(1H-tetrazol-5-yl)benzene-1,2-disulfonamide] | 9.33 | 8.18 | 9.70 | 8.96 | 3.13 µM | 12.50 µM | 6.25 µM | 3.13 µM | 6.25 µM
NS(=O)(=O)c1c(S(=O)(=O)N[C@@H]2CCNC2)ccc(N2CCn3ccnc3C2)c1-c1nnn[nH]1 [Example 9, (R)-4-(5,6-dihydroimidazo[1,2-a]pyrazin-7(8H)-yl)-N1-(pyrrolidin-3-yl)-3-(1H-tetrazol-5-yl)benzene-12-disulfonamide] | 9.32 | 8.66 | 10.00 | 9.31 | 0.39 µM | 1.56 µM | 0.20 µM | 1.56 µM | 0.78 µM
NCC(CN)NS(=O)(=O)c1ccc(N2CCn3ccnc3C2)c(-c2nn[nH]n2)c1S(N)(=O)=O [Example 10, N1-(1,3-diaminopropan-2-yl)-4-(5,6-dihydroimidazo[1,2-a]pyrazin-7(8H)-yl)-3-(2H-tetrazol-5-yl)benzene-1,2-disulfonamide] | 8.93 | 8.53 | 9.60 | 9.00 | 0.10 µM | 1.56 µM | 0.39 µM | 3.13 µM | 1.56 µM
NCC(CN)NS(=O)(=O)c1ccc(N2CCCn3ccnc32)c(-c2nn[nH]n2)c1S(N)(=O)=O [Example 11, N1-(1,3-diaminopropan-2-yl)-4-(6,7-dihydroimidazo[1,2-a]pyrimidin-8(5H)-yl)-3-(2H-tetrazol-5-yl)benzene-1,2-disulfonamide] | 8.71 | 8.34 | 8.90 | 8.43 | 0.20 µM | 1.56 µM | 0.78 µM | 2.34 µM | 1.17 µM
NCCNS(=O)(=O)c1ccc(N2CCCn3ccnc32)c(-c2nn[nH]n2)c1S(N)(=O)=O [Example 12, N1-(2-aminoethyl)-4-(6,7-dihydroimidazo[1,2-a]pyrimidin-8(5H)-yl)-3-(2H-tetrazol-5-yl)benzene-1,2-disulfonamide] | 8.80 | 8.33 | 9.22 | 8.66 | 0.05 µM | 0.39 µM | 0.20 µM | 0.78 µM | 0.20 µM
NS(=O)(=O)c1c(S(=O)(=O)N[C@@H]2CCNC2)ccc(N2CCCn3ccnc32)c1-c1nnn[nH]1 [Example 13, (R)-4-(6,7-dihydroimidazo[1,2-a]pyrimidin-8(5H)-yl)-N1-(pyrrolidin-3-yl)-3-(1H-tetrazol-5-yl)benzene-1,2-disulfonamide] | 9.11 | 8.01 | 9.41 | 8.67 | 0.20 µM | 0.78 µM | 0.39 µM | 1.56 µM | 0.78 µM
C[C@H](N)CNS(=O)(=O)c1ccc(N2CCCn3ccnc32)c(-c2nn[nH]n2)c1S(N)(=O)=O [Example 14, (S)-N1-(2-aminopropyl)-4-(6,7-dihydroimidazo[1,2-a]pyrimidin-8(5H)-yl)-3-(2H-tetrazol-5-yl)benzene-1,2-disulfonamide] | 8.79 | 8.20 | 9.01 | 8.59 | 0.10 µM | 1.56 µM | 0.39 µM | 3.13 µM | 0.78 µM
NC[C@H](CO)NS(=O)(=O)c1ccc(N2CCCn3ccnc32)c(-c2nnn[nH]2)c1S(N)(=O)=O [Example 15, (R)-N1-(1-amino-3-hydroxypropan-2-yl)-4-(6,7-dihydroimidazo[1,2-a]pyrimidin-8(5H)-yl)-3-(1H-tetrazol-5-yl)benzene-1,2-disulfonamide] | 8.63 | 8.05 | 9.00 | 8.58 | 0.20 µM | 1.56 µM | 0.39 µM | 3.13 µM | 0.78 µM
